Results from patent US20250163104A1, “MACROCYCLIC IMMUNOMODULATORS” (priority 2021, published 2025).
*1 amine or outer side, *2 acyl side, *3 side chain or, on linkers, in order; H or OH if unused. Where a SMILES comes first, the peptide text is derived from it. Bridges are numbered along the chain shown (N, C = ends). [ ]: non-standard residue; d: D form. The star is where a group is joined. Phe(3-CF3) = N[C@@H](Cc1cccc(C(F)(F)F)c1)C(=O)O; Phe(4-COOH) = N[C@@H](Cc1ccc(C(=O)O)cc1)C(=O)O; Bip = N[C@@H](Cc1ccc(-c2ccccc2)cc1)C(=O)O; Phe(3-F) = N[C@@H](Cc1cccc(F)c1)C(=O)O; Phe(3-Me) = Cc1cccc(C[C@H](N)C(=O)O)c1; γGlu = O=C(O)[C@H](CCC(=O)[*:2])N[*:1]; Val(3-OH) = CC(C)(O)[C@H](N)C(=O)O; aIle = CC[C@@H](C)[C@H](N)C(=O)O; 4Pal = N[C@@H](Cc1ccncc1)C(=O)O; Cha = N[C@@H](CC1CCCCC1)C(=O)O; Cit = NC(=O)NCCC[C@H](N)C(=O)O; dCha = N[C@H](CC1CCCCC1)C(=O)O; Carboxymethyl = O=C(O)C*; Nle = CCCC[C@H](N)C(=O)O; Orn = NCCC[C@H](N)C(=O)O; Pra = C#CC[C@H](N)C(=O)O; Dab = NCC[C@H](N)C(=O)O; Dap = NC[C@H](N)C(=O)O

Molecular target: T1, human PD-1 / PD-L1-Ig binding on Jurkat cell line over-expressing human PD-1 (Jurkat-PD-1) (Homo sapiens, UniProt Q15116)
T1 construct: expressed in transfected cells; host or cells: Jurkat
T1 sequence (Q15116 25-288): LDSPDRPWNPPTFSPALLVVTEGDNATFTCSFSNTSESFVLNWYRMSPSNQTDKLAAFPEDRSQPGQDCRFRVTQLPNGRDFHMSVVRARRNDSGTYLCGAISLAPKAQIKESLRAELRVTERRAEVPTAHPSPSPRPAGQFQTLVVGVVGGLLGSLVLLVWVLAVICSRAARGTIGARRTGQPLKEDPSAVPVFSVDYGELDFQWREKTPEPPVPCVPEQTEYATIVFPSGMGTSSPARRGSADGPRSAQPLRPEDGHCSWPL
Assay: Jurkat-PD-1 Cell Binding High-Content Screening Assay (CBA)
Assay type: cell-based
Conditions: Jurkat-PD-1 cells, PE-labeled PD-L1-Ig 20 nM final; read-out: Jurkat HPD1_PDL1 IC50
In short: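 Cell-bound PE-labeled PD-L1-Ig (20 nM final, 1 h) measured by high-content imaging after fixation and Hoechst 33342 counterstain. Compound was applied first for 2 h at 37° C. to Jurkat cells over-expressing human PD-1 in DMEM with 10% FCS.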

SMILES	IC50 [nM]
CC(C)C[C@H]1NC(=O)[C@H](CCCN)NC(=O)[C@H](CCCCN)NC(=O)[C@H](Cc2ccc(-c3ccccc3)cc2)NC(=O)[C@H](C(C)C)NC(=O)[C@H](Cc2c[nH]c3ccccc23)NC(=O)[C@H](CC(=O)O)NC(=O)[C@H](Cc2ccncc2)NC(=O)[C@H](CN)NC(=O)CSC[C@@H](C(=O)N[C@@H](CCCN)C(N)=O)NC(=O)[C@H]([C@@H](C)O)NC(=O)[C@H](C(C)C)NC(=O)[C@H](CC2CCCCC2)NC(=O)[C@H](CCN)NC1=O [Compound 2250] ({CH2CO}-[Dap][4Pal]DWV[Bip]K[Orn][dL][Dab][Cha]VTC[Orn]-NH2; thioether N-14)	43.8
COc1cccc(C[C@@H]2NC(=O)[C@H](CC(=O)O)NC(=O)[C@H](Cc3ccc(OCC(=O)O)cc3)NC(=O)[C@H](Cc3ccncc3)NC(=O)CSC[C@@H](C(=O)N[C@@H](C)C(N)=O)NC(=O)[C@H]([C@@H](C)O)NC(=O)[C@H](C(C)C)NC(=O)[C@H](CC3CCCCC3)NC(=O)[C@H](CCN)NC(=O)[C@@H](CC(C)C)NC(=O)[C@H](CCCN)NC(=O)[C@H](CCC(=O)O)NC(=O)[C@H](Cc3ccc(-c4ccccc4)cc3)NC(=O)[C@H](C(C)C)NC2=O)c1 [Compound 1544]	10.5
CC(C)C[C@H]1NC(=O)[C@H](CCCN)NC(=O)[C@H](C(C)C)NC(=O)[C@H](Cc2ccc(-c3ccccc3)cc2)NC(=O)[C@H](C(C)C)NC(=O)[C@H](Cc2cccc(Cl)c2)NC(=O)[C@H](CC(=O)O)NC(=O)[C@H](Cc2ccc(OCC(=O)O)cc2)NC(=O)[C@H](Cc2ccc(OCC(=O)O)cc2)NC(=O)CSC[C@@H](C(=O)N[C@@H](C)C(N)=O)NC(=O)[C@H]([C@@H](C)O)NC(=O)[C@H](C(C)C)NC(=O)[C@H](CC2CCCCC2)NC(=O)[C@H](CCN)NC1=O [Compound 1573]	18.1
CCCC[C@@H]1NC(=O)CSC[C@@H](C(=O)N[C@@H](CCN)C(N)=O)NC(=O)[C@H](CO)NC(=O)[C@H](C(C)(C)O)NC(=O)[C@H](CC2CCCCC2)NC(=O)[C@H](CCN)NC(=O)[C@@H](CC(C)C)NC(=O)[C@H](CCCN)NC(=O)[C@H](Cc2ccc(C(=O)O)cc2)NC(=O)[C@H](Cc2ccc(-c3ccccc3)cc2)NC(=O)[C@H](Cc2ccc(C(=O)O)cc2)NC(=O)[C@H](Cc2cccc(C(F)(F)F)c2)NC(=O)[C@H](CC(N)=O)NC(=O)[C@H](Cc2ccc(C(=O)O)cc2)NC1=O [Example 2718] ({CH2CO}-[Nle][Phe(4-COOH)]N[Phe(3-CF3)][Phe(4-COOH)][Bip][Phe(4-COOH)][Orn][dL][Dab][Cha][Val(3-OH)]SC[Dab]-NH2; thioether N-14)	330
CC(C)C[C@H]1NC(=O)[C@H](CCCN)NC(=O)[C@H](CCCNC(N)=O)NC(=O)[C@H](Cc2ccc(-c3ccccc3)cc2)NC(=O)[C@H](C(C)C)NC(=O)[C@H](Cc2c[nH]c3ccccc23)NC(=O)[C@H](CC(=O)O)NC(=O)[C@H](Cc2ccc(O)cc2)NC(=O)[C@H](Cc2ccc(OCC(=O)O)cc2)NC(=O)CSC[C@@H](C(=O)N[C@@H](C)C(N)=O)NC(=O)[C@H]([C@@H](C)O)NC(=O)[C@H](C(C)C)NC(=O)[C@H](CC2CCCCC2)NC(=O)[C@H](CCCNC(=N)N)NC1=O [Compound 1154] ({CH2CO}-Y(Carboxymethyl)YDWV[Bip][Cit][Orn][dL]R[Cha]VTCA-NH2; thioether N-14)	9.2
CC(C)C[C@@H]1NC(=O)[C@H](Cc2c[nH]c3ccccc23)NC(=O)[C@H](CC(=O)O)NC(=O)[C@H](Cc2ccncc2)NC(=O)[C@H](Cc2ccc(OCC(=O)O)cc2)NC(=O)CSC[C@@H](C(=O)NCC(N)=O)NC(=O)[C@H](CO)NC(=O)[C@H](C(C)C)NC(=O)[C@H](CC(C)C)NC(=O)[C@H](CC(N)=O)NC(=O)[C@@H](CC(C)C)NC(=O)[C@H](CCCN)NC(=O)[C@H](C(C)C)NC(=O)[C@H](Cc2ccc(-c3ccccc3)cc2)NC1=O [Compound 1286] ({CH2CO}-Y(Carboxymethyl)[4Pal]DWL[Bip]V[Orn][dL]NLVSCG-NH2; thioether N-14)	50.3
CC[C@@H](C)[C@@H]1NC(=O)[C@H](Cc2ccc(-c3ccccc3)cc2)NC(=O)[C@H](C(C)C)NC(=O)[C@H](Cc2c[nH]c3ccccc23)NC(=O)[C@H](CC(=O)O)NC(=O)[C@H](Cc2ccncc2)NC(=O)[C@H](Cc2ccc(OCC(=O)O)cc2)NC(=O)CSC[C@@H](C(=O)N[C@@H](C)C(N)=O)NC(=O)[C@H]([C@@H](C)O)NC(=O)[C@H](C(C)C)NC(=O)[C@H](CC2CCCCC2)NC(=O)[C@H](CCN)NC(=O)[C@@H](CC2CCCCC2)NC(=O)[C@H](CCCN)NC1=O [Compound 1629] ({CH2CO}-Y(Carboxymethyl)[4Pal]DWV[Bip][aIle][Orn][dCha][Dab][Cha]VTCA-NH2; thioether N-14)	19.9

More lines, in order of falling IC50, values ahead:

IC50 [nM]	SMILES
47.4	CCCC[C@@H]1NC(=O)[C@H](CCN)NC(=O)[C@@H](CC(C)C)NC(=O)[C@H](CCCN)NC(=O)[C@H]([C@@H](C)CC)NC(=O)[C@H](Cc2ccc(-c3ccccc3)cc2)NC(=O)[C@H](C(C)C)NC(=O)[C@H](Cc2cccc(C)c2)NC(=O)[C@H](CC(=O)O)NC(=O)[C@H](Cc2ccc(C(=O)O)cc2)NC(=O)[C@H](CN)NC(=O)CSC[C@@H](C(=O)N[C@@H](C)C(N)=O)NC(=O)[C@H]([C@@H](C)O)NC(=O)[C@H](C(C)C)NC1=O [Compound 1203]
28.9	CC(C)C[C@@H]1NC(=O)[C@H](CCN)NC(=O)[C@@H](CC(C)C)NC(=O)[C@H](CCCN)NC(=O)[C@H](C(C)C)NC(=O)[C@H](Cc2ccc(-c3ccccc3)cc2)NC(=O)[C@H](C(C)C)NC(=O)[C@H](Cc2c[nH]c3ccccc23)NC(=O)[C@H](CC(N)=O)NC(=O)[C@H](Cc2ccc(O)cc2)NC(=O)[C@H](CC(N)=O)NC(=O)CSC[C@@H](C(=O)NCC(N)=O)NC(=O)[C@H]([C@@H](C)O)NC(=O)[C@H](C(C)C)NC1=O [Compound 1084] ({CH2CO}-NYNWV[Bip]V[Orn][dL][Dab]LVTCG-NH2; thioether N-14)
23.5	CC[C@H](C)[C@@H]1NC(=O)[C@H](Cc2ccc(-c3ccccc3)cc2)NC(=O)[C@H](C(C)C)NC(=O)[C@H](Cc2c[nH]c3ccccc23)NC(=O)[C@H](CC(=O)O)NC(=O)[C@H](Cc2ccc(OCC(=O)O)cc2)NC(=O)[C@H](CN)NC(=O)CSC[C@@H](C(=O)N[C@@H](C)C(N)=O)NC(=O)[C@H]([C@@H](C)O)NC(=O)[C@H](C(C)C)NC(=O)[C@H](Cc2cccc(F)c2)NC(=O)[C@H](CCN)NC(=O)[C@@H](CC(C)C)NC(=O)[C@H](CCCN)NC1=O [Compound 1669] ({CH2CO}-[Dap]Y(Carboxymethyl)DWV[Bip]I[Orn][dL][Dab][Phe(3-F)]VTCA-NH2; thioether N-14)
23.3	Cc1cccc(C[C@@H]2NC(=O)[C@H](CC(=O)O)NC(=O)[C@H](Cc3ccc(C(=O)O)cc3)NC(=O)[C@H](Cc3ccc(OCC(=O)O)cc3)NC(=O)CSC[C@@H](C(=O)N[C@@H](C)C(N)=O)NC(=O)[C@H]([C@@H](C)O)NC(=O)[C@H](C(C)C)NC(=O)[C@H](CC3CCCCC3)NC(=O)[C@H](CCN)NC(=O)[C@@H](CC(C)C)NC(=O)[C@H](CCCN)NC(=O)[C@H](CCC(=O)O)NC(=O)[C@H](Cc3ccc(-c4ccccc4)cc3)NC(=O)[C@H](C(C)C)NC2=O)c1 [Compound 1426]
19.9	Cc1cccc(C[C@@H]2NC(=O)[C@H](CC(=O)O)NC(=O)[C@H](Cc3ccc(C(=O)O)cc3)NC(=O)[C@H](CN)NC(=O)CSC[C@@H](C(=O)N[C@@H](CCN)C(N)=O)NC(=O)[C@H]([C@@H](C)O)NC(=O)[C@H](C(C)C)NC(=O)[C@H](CC(C)C)NC(=O)[C@H](CCN)NC(=O)[C@@H](CC(C)C)NC(=O)[C@H](CCCN)NC(=O)[C@H](C(C)C)NC(=O)[C@H](Cc3ccc(-c4ccccc4)cc3)NC(=O)[C@H](C(C)C)NC2=O)c1 [Compound 2008] ({CH2CO}-[Dap][Phe(4-COOH)]D[Phe(3-Me)]V[Bip]V[Orn][dL][Dab]LVTC[Dab]-NH2; thioether N-14)
10.1	C#CC[C@H](NC(=O)[C@H](CCN)NC(=O)[C@@H]1CSCC(=O)N[C@@H](CCN)C(=O)N[C@@H](Cc2ccc(OCC(=O)O)cc2)C(=O)N[C@@H](CC(=O)O)C(=O)N[C@@H](Cc2cccc(C)c2)C(=O)N[C@@H](Cc2ccc(C(=O)O)cc2)C(=O)N[C@@H](Cc2ccc(-c3ccccc3)cc2)C(=O)N[C@@H](Cc2ccc(C(=O)O)cc2)C(=O)N[C@@H](CCCN)C(=O)N[C@H](CC(C)C)C(=O)N[C@@H](CCN)C(=O)N[C@@H](CC2CCCCC2)C(=O)N[C@@H](C(C)C)C(=O)N[C@@H](CCC(=O)O)C(=O)N1)C(=O)O [Compound 1823] ({CH2CO}-[Dab]Y(Carboxymethyl)D[Phe(3-Me)][Phe(4-COOH)][Bip][Phe(4-COOH)][Orn][dL][Dab][Cha]VEC[Dab][Pra]-OH; thioether N-14)
9.9	CC(C)C[C@@H]1NC(=O)[C@H](Cc2c[nH]c3ccccc23)NC(=O)[C@H](CC(=O)O)NC(=O)[C@H](Cc2ccc(OCC(=O)O)cc2)NC(=O)[C@H](Cc2ccncc2)NC(=O)CSC[C@@H](C(=O)NCC(N)=O)NC(=O)[C@H](CO)NC(=O)[C@H](C(C)C)NC(=O)[C@H](CC2CCCCC2)NC(=O)[C@H](CCN)NC(=O)[C@@H](CC(C)C)NC(=O)[C@H](CCCN)NC(=O)[C@H](C(C)C)NC(=O)[C@H](Cc2ccc(-c3ccccc3)cc2)NC1=O [Compound 1402] ({CH2CO}-[4Pal]Y(Carboxymethyl)DWL[Bip]V[Orn][dL][Dab][Cha]VSCG-NH2; thioether N-14)
6.6	C#CC[C@H](NC(=O)CC[C@H](NC(=O)[C@@H]1CSCC(=O)N[C@@H](CN)C(=O)N[C@@H](Cc2ccc(OCC(=O)O)cc2)C(=O)N[C@@H](CC(=O)O)C(=O)N[C@@H](Cc2cccc(C)c2)C(=O)N[C@@H](Cc2ccc(OCC(=O)O)cc2)C(=O)N[C@@H](Cc2ccc(-c3ccccc3)cc2)C(=O)N[C@@H](Cc2ccc(OCC(=O)O)cc2)C(=O)N[C@@H](CCCN)C(=O)N[C@H](CC(C)C)C(=O)N[C@@H](CCN)C(=O)N[C@@H](CC2CCCCC2)C(=O)N[C@@H](C(C)C)C(=O)N[C@@H]([C@@H](C)O)C(=O)N1)C(=O)O)C(N)=O [Compound 1804] ({CH2CO}-[Dap]Y(Carboxymethyl)D[Phe(3-Me)]Y(Carboxymethyl)[Bip]Y(Carboxymethyl)[Orn][dL][Dab][Cha]VTC[γGlu][Pra]-NH2; thioether N-14)
